Reference: patent US20040229930A1, “Formulations comprising a basic indolinone compound” (Pharmacia Italia S.p.A., priority 2002, published 2004)

Assay: Bulk density determination of granules / drug substance
Assay type: physicochemical
Description: Generally, bulk density is the weight of a unit volume of material. Bulk density is also known as “apparent density.” Bulk density is typically expressed as a weight:volume ratio, for example, kilograms per liter (Kg/L) or grams per cubic centimeter (g/cm[…]). Bulk desntiy of a material can be measured by techniques that are well known in the art, by measuring the weight and volume of the material. See the Examples section of this application for exemplary techniques for measurement of bulk density.
The tap and bulk density determinations are performed as follows:
(a) A 250 mL glass cylinder is filled with formulation granules to the 100-200 mL volume mark.
(b) The mass of the cyclinder is recorded and the bulk density is determined by calculating the ratio of the mass of the formulation granules to the volume of the formulation granules.

Row | bulk density (salt by itself) | bulk density (maleate salt by itself) | Structure (SMILES)
1 | about 0.11±0.1 | – | CCN(CC)CCNC(=O)c1c(C)[nH]c(/C=C2\C(=O)Nc3ccc(F)cc32)c1C [5-(5-fluoro-2-oxo-1,2-dihydro-indol-3-ylidenemethyl)-2,4-dimethyl-1H-pyrrole-3-carboxylic acid (2-diethylamino-ethyl)-amide]
2 | – | 0.05 to 0.07 kg/L | Cc1[nH]c(/C=C2\C(=O)Nc3ccc(F)cc32)c(C)c1C(=O)NCC(O)CN1CCOCC1 (centres unmarked) [5-[(Z)-(5-fluoro-2-oxo-1,2-dihydro-3H-indol-3-ylidene)methyl]-N-[2-hydroxy-3-morpholin-4-ylpropyl]-2,4-dimethyl-1H-pyrrole-3-carboxamide]
